From ChEMBL document CHEMBL1135457 (J Med Chem, 2002)
One block for each compound: values may come before it.

Experiments:
[1] = molecular target: T1, Mineralocorticoid receptor (Homo sapiens) (UniProt P08235)
T1 sequence (whole entry): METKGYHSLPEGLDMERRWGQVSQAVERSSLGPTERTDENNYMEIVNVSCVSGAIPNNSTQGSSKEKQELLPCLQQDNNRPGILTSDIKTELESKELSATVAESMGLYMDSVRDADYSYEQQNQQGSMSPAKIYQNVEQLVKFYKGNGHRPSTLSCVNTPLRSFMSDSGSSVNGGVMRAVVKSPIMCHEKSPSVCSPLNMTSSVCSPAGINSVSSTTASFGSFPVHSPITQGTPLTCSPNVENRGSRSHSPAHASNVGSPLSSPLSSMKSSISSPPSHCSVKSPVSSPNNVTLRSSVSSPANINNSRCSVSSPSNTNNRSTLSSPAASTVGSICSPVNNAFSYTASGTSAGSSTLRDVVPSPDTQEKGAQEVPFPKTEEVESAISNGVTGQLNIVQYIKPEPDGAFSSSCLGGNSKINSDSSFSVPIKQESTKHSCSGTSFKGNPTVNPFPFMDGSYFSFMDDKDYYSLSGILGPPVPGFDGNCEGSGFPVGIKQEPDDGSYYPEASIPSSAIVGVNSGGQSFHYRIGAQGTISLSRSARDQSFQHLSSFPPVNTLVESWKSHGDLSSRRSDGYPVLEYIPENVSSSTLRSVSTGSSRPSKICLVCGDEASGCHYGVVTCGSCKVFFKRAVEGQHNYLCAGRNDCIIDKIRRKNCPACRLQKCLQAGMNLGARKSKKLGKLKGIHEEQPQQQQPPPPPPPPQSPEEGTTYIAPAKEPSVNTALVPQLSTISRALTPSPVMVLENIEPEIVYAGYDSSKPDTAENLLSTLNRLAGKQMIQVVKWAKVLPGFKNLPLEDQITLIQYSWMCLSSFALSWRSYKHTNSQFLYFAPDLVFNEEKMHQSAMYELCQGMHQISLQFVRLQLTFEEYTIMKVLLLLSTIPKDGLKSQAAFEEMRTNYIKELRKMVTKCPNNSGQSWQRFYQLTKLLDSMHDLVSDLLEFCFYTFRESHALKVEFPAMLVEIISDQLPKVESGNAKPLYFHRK
Description: Antagonist activity against human mineralocorticoid receptor as displacement of radioligand

[2] = molecular target: T2, Progesterone receptor (Homo sapiens) (UniProt P06401)
T2 sequence (whole entry): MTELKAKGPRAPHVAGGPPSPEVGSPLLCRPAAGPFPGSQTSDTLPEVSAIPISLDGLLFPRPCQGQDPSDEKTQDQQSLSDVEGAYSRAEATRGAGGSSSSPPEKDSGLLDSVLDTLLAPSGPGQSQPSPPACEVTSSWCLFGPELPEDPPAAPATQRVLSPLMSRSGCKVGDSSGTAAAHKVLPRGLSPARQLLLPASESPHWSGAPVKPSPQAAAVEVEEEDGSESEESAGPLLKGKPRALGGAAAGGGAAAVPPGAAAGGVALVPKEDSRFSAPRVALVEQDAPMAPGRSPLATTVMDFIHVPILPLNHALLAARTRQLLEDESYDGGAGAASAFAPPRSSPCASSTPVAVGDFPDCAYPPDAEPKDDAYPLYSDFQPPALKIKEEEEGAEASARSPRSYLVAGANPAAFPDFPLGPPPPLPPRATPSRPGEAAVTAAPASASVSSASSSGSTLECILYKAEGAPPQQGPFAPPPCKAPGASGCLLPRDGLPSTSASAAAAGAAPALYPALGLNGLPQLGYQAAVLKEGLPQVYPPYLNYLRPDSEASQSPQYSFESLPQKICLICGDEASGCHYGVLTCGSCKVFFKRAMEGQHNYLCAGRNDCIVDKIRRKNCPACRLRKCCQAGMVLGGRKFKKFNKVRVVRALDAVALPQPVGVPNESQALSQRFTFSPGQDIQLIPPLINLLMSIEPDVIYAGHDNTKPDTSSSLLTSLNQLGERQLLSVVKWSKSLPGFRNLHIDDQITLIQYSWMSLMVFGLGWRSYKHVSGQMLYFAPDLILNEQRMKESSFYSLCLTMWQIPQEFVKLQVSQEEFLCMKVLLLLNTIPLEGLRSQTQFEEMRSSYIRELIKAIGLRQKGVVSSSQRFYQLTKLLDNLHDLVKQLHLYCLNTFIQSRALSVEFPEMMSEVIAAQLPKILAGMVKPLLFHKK
Description: (§1) Antagonist activity against human Progesterone receptor by displacement of radioligand

Estrogen receptor beta = Estrogen receptor beta (Homo sapiens, UniProt Q92731); assay: Displacement of radioligand from human ER beta
[3] = molecular target: T1, Mineralocorticoid receptor (Homo sapiens); details: 1 uM
Description: Antagonist activity against human mineralocorticoid receptor as displacement of radioligand, percent inhibition at 1 uM

[4] = molecular target: T2, Progesterone receptor (Homo sapiens); remark: listed apart in the source
Description: as §1

Estrogen receptor = molecular target: T3, Estrogen receptor (Homo sapiens, UniProt P03372); assay: Displacement of radioligand from human Estrogen receptor alpha
T3 sequence (P03372 whole entry): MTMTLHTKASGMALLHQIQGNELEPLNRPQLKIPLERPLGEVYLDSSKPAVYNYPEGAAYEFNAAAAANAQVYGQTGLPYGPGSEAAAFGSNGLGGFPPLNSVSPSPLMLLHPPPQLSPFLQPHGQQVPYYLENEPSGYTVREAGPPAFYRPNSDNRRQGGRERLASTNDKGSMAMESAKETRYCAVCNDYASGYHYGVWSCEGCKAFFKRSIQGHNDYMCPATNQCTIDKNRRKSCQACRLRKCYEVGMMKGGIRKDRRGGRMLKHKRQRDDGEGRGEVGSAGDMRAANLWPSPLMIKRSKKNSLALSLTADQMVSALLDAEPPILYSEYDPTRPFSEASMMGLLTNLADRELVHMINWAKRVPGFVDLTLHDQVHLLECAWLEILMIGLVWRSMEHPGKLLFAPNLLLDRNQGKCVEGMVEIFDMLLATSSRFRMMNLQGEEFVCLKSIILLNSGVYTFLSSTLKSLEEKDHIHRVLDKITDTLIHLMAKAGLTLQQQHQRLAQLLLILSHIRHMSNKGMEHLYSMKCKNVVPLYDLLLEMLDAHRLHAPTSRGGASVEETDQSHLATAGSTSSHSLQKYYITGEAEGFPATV

[5] = molecular target: T2, Progesterone receptor (Homo sapiens); assay: Displacement of 10 nM [3H]dexamethasone from human Progesterone receptor, percent inhibition at 10 uM

Chain of Estrogen receptor beta (Q92731 whole entry): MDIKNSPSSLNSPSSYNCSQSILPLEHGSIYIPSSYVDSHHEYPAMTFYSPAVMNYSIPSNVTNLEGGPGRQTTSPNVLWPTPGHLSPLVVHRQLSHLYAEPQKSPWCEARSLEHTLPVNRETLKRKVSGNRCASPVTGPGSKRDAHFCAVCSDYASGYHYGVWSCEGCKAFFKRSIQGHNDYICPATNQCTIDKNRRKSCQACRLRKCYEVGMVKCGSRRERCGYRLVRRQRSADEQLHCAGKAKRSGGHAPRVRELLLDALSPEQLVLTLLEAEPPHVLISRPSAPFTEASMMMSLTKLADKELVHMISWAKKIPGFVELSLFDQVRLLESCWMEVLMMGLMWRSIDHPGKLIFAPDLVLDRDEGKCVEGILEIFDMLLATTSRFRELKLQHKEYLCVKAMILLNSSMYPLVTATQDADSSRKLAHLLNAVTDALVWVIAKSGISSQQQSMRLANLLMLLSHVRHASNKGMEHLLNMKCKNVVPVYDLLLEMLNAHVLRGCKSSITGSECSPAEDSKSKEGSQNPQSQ

Kif [1]: > 1000 nM
SMILES: O=C1CC[C@@]2(Cc3ccccc3)c3ccc(O)cc3CC[C@@H]2C1

SMILES: Oc1ccc2c(c1)CC[C@@H]1C[C@@](O)(C#CCl)CC[C@@]21Cc1ccccc1
Kif [2]: > 1000 nM

SMILES: CC#C[C@]1(O)CCC2C3CCC4=CC(=O)CC[C@]4(Cc4ccc(C)cc4)C3=CC[C@@]21C (some centres not stated)
Ki (Estrogen receptor beta): > 10 µM
inhibition [3]: 0%
Kif [4]: > 1000 nM
Ki (Estrogen receptor): > 10 µM
inhibition [5]: 30%
